{
  "source": "patent US20040044007A1",
  "about": "“Indoline derivatives” (H. Lundbeck A/S, priority 2000, published 2004)",
  "key": {"[1]": {"target": "T1, human cloned dopamine D4.2 receptors (Homo sapiens, UniProt P21917, DEL265-296)", "T1 construct": "expressed in transfected cells; host or cells: CHO cells", "T1 sequence (P21917 with tags, fused parts or gaps DEL265-296)": "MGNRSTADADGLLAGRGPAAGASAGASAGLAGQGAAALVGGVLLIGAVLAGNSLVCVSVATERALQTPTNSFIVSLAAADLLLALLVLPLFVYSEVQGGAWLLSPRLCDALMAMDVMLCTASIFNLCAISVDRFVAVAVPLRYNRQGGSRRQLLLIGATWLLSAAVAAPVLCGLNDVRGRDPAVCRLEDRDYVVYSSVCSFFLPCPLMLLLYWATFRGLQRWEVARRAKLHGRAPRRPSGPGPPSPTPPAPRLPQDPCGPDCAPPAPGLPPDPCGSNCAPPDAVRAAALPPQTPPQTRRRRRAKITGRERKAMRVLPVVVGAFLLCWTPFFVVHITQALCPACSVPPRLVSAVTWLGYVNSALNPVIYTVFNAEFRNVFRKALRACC", "assay": "Inhibition of the binding of [3H]YM-09151-2 to D4.2 receptors", "details": "[3H]YM-09151-2 0.06 nM; for % inhib. at the D4-receptor: % inhibition of binding at 50 nM; for IC50: membranes of CHO-cells, read-out: IC50 (nM) at the D4-receptor", "text": "The method is modified from NEN Life Science Products, Inc., technical data certificate PC2533-10/96."}, "[2]": {"target": "T2, 5-HT2A receptors (Rattus norvegicus, UniProt P14842)", "T2 construct": "membranes from rat brain (cortex) in vitro; from tissue; host or cells: rat brain cortex membranes", "T2 sequence (P14842 whole entry)": "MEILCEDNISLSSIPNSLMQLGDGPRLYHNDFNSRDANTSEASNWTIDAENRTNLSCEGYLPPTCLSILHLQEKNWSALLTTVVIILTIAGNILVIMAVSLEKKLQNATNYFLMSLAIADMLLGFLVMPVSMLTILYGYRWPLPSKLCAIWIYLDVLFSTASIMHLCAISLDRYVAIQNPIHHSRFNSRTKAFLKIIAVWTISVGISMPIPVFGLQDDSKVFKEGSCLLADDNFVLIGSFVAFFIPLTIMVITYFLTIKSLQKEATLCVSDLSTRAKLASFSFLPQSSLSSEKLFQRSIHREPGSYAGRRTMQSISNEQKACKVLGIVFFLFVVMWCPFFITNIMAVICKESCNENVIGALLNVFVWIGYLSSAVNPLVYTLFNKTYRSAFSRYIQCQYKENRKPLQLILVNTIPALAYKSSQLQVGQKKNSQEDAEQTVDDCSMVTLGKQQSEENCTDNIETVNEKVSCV", "assay": "Inhibition of the binding of [3H]Ketanserin to 5-HT2A receptors", "details": "[3H]Ketanserin 0.50 nM, membranes from rat brain (cortex); read-out: IC50 (nM) at the 5HT2A-receptor", "description": "Inhibition of the Binding of [^3H]Ketanserin to 5-HT2A Receptors\nThe compounds were tested with respect to their affinity for 5-HT2A receptors by determining their ability to inhibit binding of [^3H]Ketanserin (0.50 nM) to membranes from rat brain (cortex) in vitro. Method described in Sanchez et al. Drug Dev. Res. 1991, 22, 239-250."}, "[3]": {"target": "T3, D4 receptor (Homo sapiens, UniProt P21917)", "T3 sequence (P21917 1-419)": "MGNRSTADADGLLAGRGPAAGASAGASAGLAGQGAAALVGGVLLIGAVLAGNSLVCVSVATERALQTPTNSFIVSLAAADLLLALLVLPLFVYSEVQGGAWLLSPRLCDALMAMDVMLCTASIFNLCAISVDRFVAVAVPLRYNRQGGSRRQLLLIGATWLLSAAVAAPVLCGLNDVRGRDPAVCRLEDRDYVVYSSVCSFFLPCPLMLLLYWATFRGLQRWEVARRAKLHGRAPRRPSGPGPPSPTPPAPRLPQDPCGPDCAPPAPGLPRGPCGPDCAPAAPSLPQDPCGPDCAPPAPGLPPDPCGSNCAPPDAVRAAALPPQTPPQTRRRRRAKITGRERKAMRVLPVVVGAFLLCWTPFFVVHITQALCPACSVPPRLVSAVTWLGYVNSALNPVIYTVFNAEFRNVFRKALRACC", "details": "various in vitro efficacy assays (Gazi et al.); cited from earlier work"}},
  "note": "Structures can show the parent of a compound that is named as a salt.",
  "data": [
    {"smiles": "CC(=O)N1CC(CCN2CCN(c3ccc(Cl)c(Cl)c3)CC2)c2ccccc21", "note": "(single isomer, unassigned; (+)) (as salt: hydrochloride) [Compound 1d, (+)-1-[2-(1-Acetyl-2,3-dihydro-1H-indol-3-yl)ethyl]-4-(3,4-dichlorophenyl)piperazine, hydrochloride]", "values": [
      {"measurement": "melting point", "value": "184 to 186", "unit": "°C"}
    ]},
    {"smiles": "CC(=O)N1CC(CCN2CCN(c3ccc(C)c(C)c3)CC2)c2ccccc21.Cl", "note": "(single isomer, unassigned; (+)) [Compound 1a, (+)-1-[2-(1-Acetyl-2,3-dihydro-1H-indol-3-yl)ethyl]-4-(3,4-dimethylphenyl)piperazine, hydrochloride]", "values": [
      {"measurement": "% inhib. at the D4-receptor", "setting": "[1]", "value": 88, "unit": "%"},
      {"measurement": "IC50", "setting": "[1]", "value": "< 50", "unit": "nM"},
      {"measurement": "IC50", "setting": "[2]", "value": 5, "unit": "nM"}
    ]},
    {"smiles": "CC(=O)N1CC(CCN2CCN(c3ccc(C)cc3)CC2)c2ccccc21.Cl", "note": "(single isomer, unassigned; (+)) [Compound 1b, (+)-1-[2-(1-Acetyl-2,3-dihydro-1H-indol-3-yl)ethyl]-4-(4-methylphenyl)piperazine, hydrochloride]", "values": [
      {"measurement": "% inhib. at the D4-receptor", "setting": "[1]", "value": 88, "unit": "%"},
      {"measurement": "IC50", "setting": "[1]", "value": "< 50", "unit": "nM"},
      {"measurement": "melting point", "value": "217 to 220", "unit": "°C"},
      {"measurement": "IC50", "setting": "[2]", "value": 15, "unit": "nM"}
    ]},
    {"smiles": "CC(=O)N1CC(CCN2CCC(c3ccc(C)cc3)CC2)c2ccccc21", "note": "(single isomer, unassigned; (+)) [Compound 1c, (+)-1-[2-(1-Acetyl-2,3-dihydro-1H-indol-3-yl)ethyl]-4-(4-methylphenyl)piperidine]", "values": [
      {"measurement": "% inhib. at the D4-receptor", "setting": "[1]", "value": 76, "unit": "%"},
      {"measurement": "IC50", "setting": "[1]", "value": "< 50", "unit": "nM"},
      {"measurement": "melting point", "value": "112 to 114", "unit": "°C"},
      {"measurement": "IC50", "setting": "[2]", "value": 17, "unit": "nM"}
    ]},
    {"smiles": "CC(=O)N1CC(CCN2CCN(c3ccc(Cl)c(Cl)c3)CC2)c2ccccc21", "note": "(single isomer, unassigned; (+)) [Compound 1d, (+)-1-[2-(1-Acetyl-2,3-dihydro-1H-indol-3-yl)ethyl]-4-(3,4-dichlorophenyl)piperazine, hydrochloride]", "values": [
      {"measurement": "% inhib. at the D4-receptor", "setting": "[1]", "value": 86, "unit": "%"},
      {"measurement": "IC50", "setting": "[1]", "value": "< 50", "unit": "nM"},
      {"measurement": "IC50", "setting": "[2]", "value": 21, "unit": "nM"}
    ]},
    {"smiles": "CC(=O)N1CC(CCN2CCN(c3ccc(Br)cc3)CC2)c2ccccc21", "note": "(stereo not drawn) [Compound 1e, (+)-]-[2-(1-Acetyl-2,3-dihydro-1H-indol-3-yl)ethyl]-4-(4-bromophenyl)piperazine, hydrochloride]", "values": [
      {"measurement": "% inhib. at the D4-receptor", "setting": "[1]", "value": 95, "unit": "%"},
      {"measurement": "IC50", "setting": "[1]", "value": "< 50", "unit": "nM"},
      {"measurement": "IC50", "setting": "[2]", "value": 17, "unit": "nM"}
    ]},
    {"smiles": "CC(=O)N1CC(CCN2CC=C(c3ccc(Cl)c(Cl)c3)CC2)c2ccccc21", "note": "(centres unmarked) [Compound 1f, ]-[2-(1-Acetyl-2,3-dihydro-1H-indol-3-yl)ethyl]-4-(3,4-dichlorophenyl)-3,6-dihydro-2H-pyridine, hydrochloride]", "values": [
      {"measurement": "IC50", "setting": "[1]", "value": 13, "unit": "nM"},
      {"measurement": "IC50", "setting": "[2]", "value": 27, "unit": "nM"}
    ]},
    {"smiles": "CC(=O)N1CC(CCN2CCC(c3ccc(Cl)c(Cl)c3)CC2)c2ccccc21", "note": "(centres unmarked) [Compound 1g, 1-[2-(1-Acetyl-2.3-dihydro-1H-indol-3-yl)ethyl]-4-(3.4-dichlorophenyl)piperidine, hydrochloride]", "values": [
      {"measurement": "IC50", "setting": "[1]", "value": 5.4, "unit": "nM"},
      {"measurement": "IC50", "setting": "[2]", "value": 21, "unit": "nM"}
    ]},
    {"smiles": "CC(C)Oc1cccnc1N(C)C1CCN(Cc2ccccc2)CC1", "note": "[Compound U-101958]", "values": [
      {"measurement": "Functional activity at D4 receptor", "setting": "[3]", "value": "partial D4 receptor agonists"}
    ]}
  ]
}
